# Test results reported in US10238637B2, “Modulators of the adenosine A3 receptors” (PALOBIOFARMA, S.L., priority 2015, dated 2019).
# How the values were obtained:
# [1] = system: intestinal inflammation and spontaneous colitis; conditions: mice; cited from earlier work
# rheumatoid arthritis = conditions: RA patients, oral administration twice daily for 12 weeks; cited from earlier work
# [2] = system: ischemia induced renal failure; conditions: rats, ischemia induced with micro aneurysm clips after pretreatment; cited from earlier work
# [3] = system: experimental autoimmune uveitis; conditions: experimental autoimmune uveitis model; cited from earlier work
# human A3 receptors = molecular target: T1, human A3 receptors (Homo sapiens, UniProt P0DMS8); assay: Adenosine receptor subtypes competition radioligand binding assay, A3 receptor ([3H]-NECA); conditions: membranes from human A3 receptors transfected to CHO cells, 60 min at 25° C.
# T1 construct: purchased Receptor Biology, Inc. (USA); host or cells: CHO cells
# T1 sequence (P0DMS8 1-318): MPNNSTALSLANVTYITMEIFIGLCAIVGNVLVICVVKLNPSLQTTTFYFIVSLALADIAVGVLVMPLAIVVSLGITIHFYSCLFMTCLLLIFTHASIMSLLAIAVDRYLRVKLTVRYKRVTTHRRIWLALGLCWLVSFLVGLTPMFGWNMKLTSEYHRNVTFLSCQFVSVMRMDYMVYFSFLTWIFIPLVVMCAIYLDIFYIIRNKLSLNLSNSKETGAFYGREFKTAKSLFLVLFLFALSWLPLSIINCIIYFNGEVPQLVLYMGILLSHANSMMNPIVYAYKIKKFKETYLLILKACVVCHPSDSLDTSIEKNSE
# Protocol: (§1) Adenosine Receptor Subtypes Competition Radioligand Binding Assay
# (§2) Human recombinant membranes with adenosine receptors were purchased from Receptor Biology, Inc. (USA).
# Competitive assays were carried out by incubation of membranes from human A3 receptors transfected to CHO cells, [^3H]-NECA, buffer (20 mM HEPES (pH 7.4), 100 mM NaCl, 10 mM MgCl2, 2 units/ml adenosine deaminase), and unlabelled ligand in a total volume of 0.2 ml for 60 min at 25° C. R-PIA was used to determine nonspecific binding. It was filtered over Schleicher & Schuell GF/52 (presoaked with 0.5% polyethyleneimine) in a Brandel cell harvester. The unbound radioligand was removed with 3×250 μl of 20 mM HEPES (pH 7.4), 100 mM NaCl, 10 mM MgCl2.
# In Table 1, binding constants to adenosine A3 receptor obtained for some examples are shown.
# adenosine A1 receptor = molecular target: T2, adenosine A1 receptor (Homo sapiens, UniProt P30542); assay: Adenosine receptor subtypes competition radioligand binding assay, A1 receptor; conditions: human recombinant membranes
# T2 construct: purchased Receptor Biology, Inc. (USA)
# T2 sequence (P30542 1-326): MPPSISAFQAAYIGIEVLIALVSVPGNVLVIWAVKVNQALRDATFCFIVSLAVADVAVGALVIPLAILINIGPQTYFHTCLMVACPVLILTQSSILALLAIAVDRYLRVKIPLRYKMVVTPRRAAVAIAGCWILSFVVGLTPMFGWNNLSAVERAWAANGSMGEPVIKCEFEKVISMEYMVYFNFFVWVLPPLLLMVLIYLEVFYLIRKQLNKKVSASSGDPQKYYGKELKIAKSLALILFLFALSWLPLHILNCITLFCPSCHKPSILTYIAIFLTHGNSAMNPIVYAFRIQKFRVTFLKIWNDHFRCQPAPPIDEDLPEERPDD
# From the text: as §1, §2
Ki (human A3 receptors) [nM],Ki (adenosine A1 receptor) [nM],Compound,also measured
,,"CNC(=O)[C@H]1O[C@@H](n2cnc3c(NCc4cccc(I)c4)ncnc32)[C@H](O)[C@@H]1O [IB-MECA, N6-(3-iodobenzyl)-adenosine-5′-N-methyluronamide]","Effect on intestinal inflammation and spontaneous colitis [1]: ameliorate intestinal inflammation and spontaneous colitis; Effect on disease signs and symptoms (rheumatoid arthritis): improvement of disease signs and symptoms; Safety and tolerability (rheumatoid arthritis): safe, well tolerated; Effect of pretreatment on ischemia induced renal failure [2]: harmful; Effect on clinical and pathological manifestations of uveitis [3]: inhibited the clinical and pathological manifestations of uveitis"
66,131,"N#Cc1sc(NC(=O)c2ccc(C(=O)O)s2)nc1-c1ccc(F)cc1 [Example 13, 5-(5-cyano-4-(4-fluorophenyl)thiazol-2-ylcarbamoyl)thiophene-2-carboxylic Acid]",
10,> 1000,"COc1ccc(-c2nc(NC(=O)c3cccc(C(=O)O)c3)sc2C#N)cc1 [Example 6, 3-(5-cyano-4-(4-methoxyphenyl)thiazol-2-ylcarbamoyl)benzoic Acid]",
66,87,"N#Cc1sc(NC(=O)c2ccc(C(=O)O)s2)nc1-c1ccccc1 [Example 22, 5-(5-cyano-4-phenylthiazol-2-ylcarbamoyl)thiophene-2-carboxylic Acid]",
10,64,"O=C(O)c1ccc(C(=O)Nc2nc(-c3ccccc3)c(F)s2)s1 [Example 41, 5-(5-fluoro-4-phenylthiazol-2-ylcarbamoyl)thiophene-2-carboxylic Acid]",
23,> 1000,"COc1ccc(-c2nc(NC(=O)c3ccc(C(=O)O)s3)sc2C#N)cc1 [Example 8, 5-(5-cyano-4-(4-methoxyphenyl)thiazol-2-ylcarbamoyl)thiophene-2-carboxylic Acid]",
36,,"N#Cc1sc(NC(=O)c2ccc(C(=O)O)s2)nc1-c1cccs1 [Example 25, 5-((5-cyano-4-(thiophen-2-yl)thiazol-2-yl)carbamoyl)thiophene-2-carboxylic Acid]",
99,> 500,"N#Cc1sc(NC(=O)c2ccc(C(=O)O)s2)nc1-c1ccccc1F [Example 15, 5-(5-cyano-4-(2-fluorophenyl)thiazol-2-ylcarbamoyl)thiophene-2-carboxylic Acid]",
21,34,"O=C(O)c1ccc(C(=O)Nc2nc(-c3ccccc3)c(Cl)s2)s1 [Example 38, 5-(5-chloro-4-phenylthiazole-2-ylcarbamoyl)thiophene-2-carboxylic Acid]",
99,> 1000,"COc1ccc(-c2nc(NC(=O)c3cccc(C(=O)O)c3)sc2C#N)cn1 [Example 37, 3-(5-cyano-4-(6-methoxypyridin-3-yl)thiazol-2-ylcarbamoyl)benzoic Acid]",
24,> 1000,"COc1ccc(-c2nc(NC(=O)c3ccc(C(=O)O)s3)sc2Cl)cc1 [Example 44, 5-(5-chloro-4-(4-methoxyphenyl)thiazol-2-ylcarbamoyl)thiophene-2-carboxylic Acid]",
12,,"N#Cc1sc(NC(=O)c2ccc(C(=O)O)s2)nc1-c1cc(Cl)cs1 [Example 26, 5-((4-(4-chlorothiophen-2-yl)-5-cyanothiazol-2-yl)carbamoyl)thiophene-2-carboxylic Acid]",
